Experiments:
MDCK cells = experiment: Inhibition of uptake of 5-FU in MDCK cells (Test Example 4); type: cell-based; conditions: Canis lupus familiaris, 3H-5FU uptake versus control, harvest time (1, 3 or 5 hours) not given; for inhibition at 100 µM: 10⁻⁴ M; for inhibition at 10 µM: 10⁻⁵ M; for inhibition at 1 µM: 10⁻⁶ M
Protocol: In the assay of inhibitory activity against the 5-FU uptake of MDCK cells, the anticancer adjuvant activity of the test compound can be estimated based on the inhibitory effect on the uptake of a known anticancer drug.
The inhibitory effect of the compound of this invention on the uptake of 5-FU in MDCK cells was investigated. MDCK cells were seeded on a 24-well culture plate. When the cells became confluent, the test compound (10⁻⁶ - 10⁻⁴ M) and 3H-5FU ([…]) were simultaneously added to the medium and 1, 3 and 5 hours later, cells were harvested to determine the amount of 3H-5FU taken up with a liquid scintillation counter. The percent inhibition to control was calculated.

Colon 26 tumor cells [1] = experiment: Colon 26 percent tumor inhibition, alone and combined with 5-FU derivatives (Test Example 3); type: in vivo, BALB/c mice; conditions: for % Inhibition, Combination: test compound 10 mg/kg orally once daily concurrently with 5-FU derivatives (90 mg/kg total); for % Inhibition, Single drug: test compound 10 mg/kg orally once daily, 5-FU derivatives 30 mg/kg each (90 mg/kg total) orally
Protocol: The additive effect of 5-FU derivative and the compound of this invention was tested in terms of percent tumor inhibition. Colon 26 tumor cells were transplanted subcutaneously to groups of 8 BALB/c mice and the treatment was instituted when the tumor volume amounted to about 50-100 mm³. Each of the test com pound was suspended in 0.5% methylcellulose and admin istered orally in a dose of 10 mg/kg once daily for 14 days in (1) and for 21 days in (2) and (3). As 5-FU derivatives Mifurol™, Furtulon™ and Sunfural™ were used, and all the drugs were administered orally in a dose of 30mg/kg, or 90 mg/kg as total dose of three drugs. The combination group received these 5-FU derivatives concurrently with the test drug. The single drug group received each test compound alone orally.

Colon 26 tumor cells [2] = experiment: Colon 26 life-prolonging effect / survival (Test Example 5); type: in vivo, BALB/c mice; conditions: 10 mg/kg orally once daily; for life-prolonging effect: Test (2): groups of six, eighty percent of control group died on day 63, Fig. 4
Protocol: Furthermore, in the assay of growth inhibitory activity against Colon 26, the life-prolonging effect can be evaluated from the mortality of animals during a period of 4 to 6 weeks after administration.
• (1) Colon 26 tumor cells were transplanted subcutane ously in groups of six BALB/c mice and the treatment was instituted when the tumor volume amounted to about 100 - 200 mm³. The test drug suspended in 0.5% methyl cellulose was administered orally in a dose of 10 mg/kg once daily during the test period. All animals in the control group (no test drug was contained at all) died on day 34 and all animals given 5-FU derivative died on day 40, whereas none of the animals given the compound of this invention (compound No. 169) died even after day 40. The life-prolonging effect of the compound of this invention is clear. • (2) As in the above (1), Colon 26 tumor cells were transplanted subcutaneously in groups of six BALB/c mice and treatment was instituted when the tumor volume amounted to about 100-200 mm³. The test drug suspended in 0.5% methylcellulose was administered orally in a dose of 10 mg/kg once daily during the test period.
The open circle stands for control, the open square for the F-5U derivative group and the closed square for the group given the compound of this invention. The survival rate (%) is plotted on the vertical axis and the number of days after drug administration on the horizontal axis.
The open circle stands for the control group, the open square for Compound No. 175 group, the closed circle for Compound No. 210 group, the open triangle for Compound No. 213 group and the closed square for Compound 219 group. The survival rate (%) is plotted on the vertical axis and the number of days after drug administration on the horizontal axis.

[3] = Anticancer effect in unspecified in vitro test systems (Test Example 6); conditions: in vitro test systems which the inventor used, not described

SMILES	inhibition at 100 µM (MDCK cells) [%]	inhibition at 10 µM (MDCK cells) [%]	inhibition at 1 µM (MDCK cells) [%]	also measured
O=C(Nc1nc(NC(=O)c2cccnc2)nc(-c2ccccc2)n1)c1cccnc1 [Compound No. 102, 2,4-Dinicotinoylamino-6-phenyl-1,3,5-triazine]	62	59	86	–
Nc1nc(NC(=O)c2ccccc2)nc(-c2ccccc2)n1 [Compound No. 103, 2-Amino-4-benzoylamino-6-phenyl-1,3,5-triazine]	50	58	–	–
O=C(Nc1nc(NC(=O)c2ccccc2)nc(-c2ccccc2)n1)c1ccccc1 [Compound No. 104, 2,4-Dibenzoylamino-6-phenyl-1,3,5-triazine]	44	50	60	–
Nc1nc(N)nc(-c2ccc(Cl)c(Cl)c2)n1 [Compound No. 156, 2,4-Diamino-6-(3,4-dichlorophenyl)-1,3,5-triazine]	56	73	85	–
Nc1nc(N)nc(-c2cccc(Cl)c2)n1 [Compound No. 159, 2,4-Diamino-6-(3-chlorophenyl)-1,3,5-triazine]	–	–	–	% Inhibition, Combination (Colon 26 tumor cells [1]; Test (1): 14 days): 50.9%; % Inhibition, Single drug (Colon 26 tumor cells [1]; Test (1): 14 days): 2.0%
Nc1nc(N)nc(-c2cc(Cl)ccc2Cl)n1 [Compound No. 169, 2,4-Diamino-6-(2,5-dichlorophenyl)-1,3,5-triazine]	–	–	–	% Inhibition, Combination (Colon 26 tumor cells [1]; Test (1): 14 days): 54.6%; % Inhibition, Single drug (Colon 26 tumor cells [1]; Test (1): 14 days): 18.0%; % Inhibition, Combination (Colon 26 tumor cells [1]; Test (2): 21 days): 84.1%; % Inhibition, Single drug (Colon 26 tumor cells [1]; Test (2): 21 days): 11.6%; % Inhibition, Combination (Colon 26 tumor cells [1]; Test (3): 21 days): 49.9%; % Inhibition, Single drug (Colon 26 tumor cells [1]; Test (3): 21 days): 10.7%; survival: day on which the animals died (Colon 26 tumor cells [2]; Test (1): groups of six, control group all died on day 34, Fig. 3): > 40 days
Nc1nc(N)nc(-c2ccc(Cl)cc2Br)n1 [Compound No. 210, 2,4-Diamino-6-(2-bromo-4-chlorophenyl)-1,3,5-triazine]	–	–	–	% Inhibition, Combination (Colon 26 tumor cells [1]; Test (2): 21 days): 86.0%; life-prolonging effect (Colon 26 tumor cells [2]): definite life-prolonging effect
Nc1nc(N)nc(-c2cc(Br)ccc2Cl)n1 [Compound No. 213, 2,4-Diamino-6-(5-bromo-2-chlorophenyl)-1,3,5-triazine]	–	–	–	% Inhibition, Combination (Colon 26 tumor cells [1]; Test (2): 21 days): 70.4%; life-prolonging effect (Colon 26 tumor cells [2]): definite life-prolonging effect
Nc1nc(N)nc(-c2ccc(Br)c(Cl)c2)n1 [Compound No. 219, 2,4-Diamino-6-(4-bromo-3-chlorophenyl)-1,3,5-triazine]	60	69	86	% Inhibition, Combination (Colon 26 tumor cells [1]; Test (2): 21 days): 75.5%; % Inhibition, Single drug (Colon 26 tumor cells [1]; Test (2): 21 days): 10.0%; life-prolonging effect (Colon 26 tumor cells [2]): definite life-prolonging effect
COCCOc1ccc(Cl)cc1-c1nc(N)nc(N)n1 [Compound No. 221, 2,4-Diamino-6-[5-chloro-2-(2-methoxyethoxy)phenyl]-1,3,5-triazine]	–	–	–	% Inhibition, Combination (Colon 26 tumor cells [1]; Test (3): 21 days): 76.5%; % Inhibition, Single drug (Colon 26 tumor cells [1]; Test (3): 21 days): 18.1%
COc1ccc(-c2nc(N)nc(N)n2)cc1OC [Compound No. 259, 2,4-Diamino-6-(3,4-dimethoxyphenyl)-1,3,5-triazine]	62	66	77	% Inhibition, Combination (Colon 26 tumor cells [1]; Test (1): 14 days): 45.6%; % Inhibition, Single drug (Colon 26 tumor cells [1]; Test (1): 14 days): 9.2%
Nc1nc(NC(=O)c2cccnc2)nc(-c2cc(Cl)ccc2Cl)n1 [Compound No. 262, 2-Amino-4-nicotinoylamino-6-(2,5-dichlorophenyl)-1,3,5-triazine]	46	58	–	% Inhibition, Combination (Colon 26 tumor cells [1]; Test (3): 21 days): 48.8%; % Inhibition, Single drug (Colon 26 tumor cells [1]; Test (3): 21 days): 19.2%
Nc1nc(NC(=O)c2cccnc2)nc(-c2ccc(Cl)c(Cl)c2)n1 [Compound No. 263, 2-Amino-4-nicotinoylamino-6-(3,4-dichlorophenyl)-1,3,5-triazine]	–	–	–	% Inhibition, Combination (Colon 26 tumor cells [1]; Test (1): 14 days): 47.9%; % Inhibition, Single drug (Colon 26 tumor cells [1]; Test (1): 14 days): 7.0%; % Inhibition, Combination (Colon 26 tumor cells [1]; Test (3): 21 days): 52.0%; % Inhibition, Single drug (Colon 26 tumor cells [1]; Test (3): 21 days): 8.9%
COc1ccc(-c2nc(N)nc(NC(=O)c3cccnc3)n2)cc1OC [Compound No. 264, 2-Amino-4-nicotinoylamino-6-(3,4-dimethoxyphenyl)-1,3,5-triazine]	56	62	89	–
Nc1nc(N)nc(-c2ccc(OCc3ccccc3)cc2)n1 [Compound No. 345, 2,4-Diamino-6-(4-benzyloxyphenyl)-1,3,5-triazine]	70	63	63	–
CC(=O)c1cccc(-c2nc(N)nc(N)n2)c1 [Compound No. 347, 2,4-Diamino-6-(3-acetylphenyl)-1,3,5-triazine]	49	61	–	–
Nc1cccc(-c2nc(N)nc(N)n2)c1 [Compound No. 352, 2,4-Diamino-6-(3-aminophenyl)-1,3,5-triazine]	64	69	–	–
Nc1nc(N)nc(-c2ccccc2NCc2ccccc2)n1 [Compound No. 356, 2,4-Diamino-6-(2-benzylaminophenyl)-1,3,5-triazine]	51	73	91	–
Nc1nc(N)nc(-c2ccc(Br)c(Br)c2)n1 [Compound No. 405, 2,4-Diamino-6-(3,4-dibromophenyl)-1,3,5-triazine]	62	59	–	–
Nc1nc(N)nc(-c2ccccc2)n1 [compound 100, 2,4-Diamino-6-phenyl-1,3,5-triazine]	–	–	–	anticancer effect in vitro [3]: strong anticancer effect
CCONc1nc(N)nc(-c2cc(Cl)ccc2Cl)n1 [compound 183, 2-Amino-4-ethoxyamino-6-(2,5-dichlorophenyl)-1,3,5-triazine]	–	–	–	anticancer effect in vitro [3]: strong anticancer effect
Nc1nc(N)nc(-c2cc(Br)ccc2F)n1 [compound 215, 2,4-Diamino-6-(5-bromo-2-fluorophenyl)-1,3,5-triazine]	–	–	–	anticancer effect in vitro [3]: strong anticancer effect
COc1ccccc1-c1nc(N)nc(N)n1 [compound 255, 2,4-Diamino-6-(2-methoxyphenyl)-1,3,5-triazine]	–	–	–	anticancer effect in vitro [3]: strong anticancer effect
Nc1nc(N)nc(-c2cc([N+](=O)[O-])ccc2Cl)n1 [compound 374, 2,4-Diamino-6-(2-chloro-5-nitrophenyl)-1,3,5-triazine]	–	–	–	anticancer effect in vitro [3]: strong anticancer effect
Cc1ccc(Cl)cc1-c1nc(N)nc(N)n1 [compound 380, 2,4-Diamino-6-(5-chloro-2-methylphenyl)-1,3,5-triazine]	–	–	–	anticancer effect in vitro [3]: strong anticancer effect
Nc1nc(N)[n+]([O-])c(-c2cc(Cl)ccc2Cl)n1 [compound 1001, 2,4-Diamino-6-(2,5-dichlorophenyl)-1,3,5-triazine N-oxide]	–	–	–	anticancer effect in vitro [3]: strong anticancer effect

Source: patent EP0563386A1, “ANTICANCER COMPOSITION AND COMPOUND” (NIPPON SHINYAKU COMPANY, LIMITED, priority 1990, dated 1992)
